Results as given in patent US6812025B2, “Two hybrid assay that detects HIV-1 reverse transcriptase dimerization” (priority 2000, dated 2004).

Assays:
lexA87 and Gal4AD = target: T1, lexA87 and Gal4AD (UniProt P04386+P0A7C2); test: Y2H specificity control, empty vectors pSH2-1 and pGADNOT; assay type: cell-based; settings: serial dilutions, up to 15 μM of drug; data not shown
T1 construct: expressed in transfected cells; host or cells: Saccharomyces cerevisiae (yeast reporter strain)
T1 sequence (P0A7C2 1-87): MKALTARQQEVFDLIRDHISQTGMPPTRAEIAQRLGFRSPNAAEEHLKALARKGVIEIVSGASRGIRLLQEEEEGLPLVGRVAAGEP
T1 sequence (P04386 768-881): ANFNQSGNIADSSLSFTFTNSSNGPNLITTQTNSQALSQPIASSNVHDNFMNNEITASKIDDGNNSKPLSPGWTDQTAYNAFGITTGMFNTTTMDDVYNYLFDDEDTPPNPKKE
Excerpt: The specificity of the b-gal enhancement by NNRTIs was investigated. […].

p66/p51 heterodimer [1] = target: T2, p66/p51 heterodimer (Human immunodeficiency virus type 1 group M subtype B, UniProt P12497); settings: cited from earlier work
T2 construct: The enzyme is a heterodimer of p66 and p51 subunits

p66-His and GST-p51 = p66-His and GST-p51 (Human immunodeficiency virus type 1 group M subtype B, UniProt P04585); assay type: binding, HIV-1; settings: for enhancement of dimerization of GST-p51 and p66-His in vitro: bacterial lysates, 1-1000 fold molar excess of drug, overnight
Method: Cells were induced and then lysed by the addition of 1 mg/ml of lysozyme to 1 ml of lysis buffer [50 mM sodium phosphate buffer (pH 7.8), 500 mM NaCl, 0.5% Nonidet P-40, 5 mM DTT, and 1 μg/ml each of pepstatin A, aprotinin and leupeptin] and clarified. Lysates were combined and incubated for 16 hrs at 4° C. The heterodimer was captured on Glutathione Sepharose 4B beads and unbound subunits were removed by washing with lysis buffer. Heterodimer bound to beads were resolved by SDS/PAGE. For quantification of RT activity, dimers were eluted from beads with 10 mM reduced glutathione in 50 mM Tris (pH 8.0). Samples were assayed for DNA polymerase activity on homopolymeric template-primers for various times, and the activity was determined from the initial slope of the linear phase of the time course.

p66/p51 heterodimer [2] = target: T2, p66/p51 heterodimer; test: Y2H system, preliminary tests of TSAO on heterodimerization; assay type: cell-based, HIV-1; settings: data not shown
Method: (§1) Transformation of yeast and the qualitative β-galactosidase (β-gal) colony lift assay were as published (19). Quantification of protein-protein interactions was determined using the β-gal liquid assay performed on permeabilized yeast grown from three independent transformants using orthonitrophenyl-β-D-galactopyranoside as substrate (19).
To date, there are no HIV-1 RT dimerization inhibitors being used in the clinic. Nevertheless, there are several reports of HIV-1 and HIV-2 RT dimerization inhibitors based on peptides representing the conserved tryptophan repeat region of RT (32, 37). […] However, the possibility that the drug is not taken up by yeast cannot be ruled out. The availability of a Y2H assay for RT dimerization will facilitate the screening for other such inhibitors of this process according to the methods set forth herein.

HIV-1 = settings: cited from earlier work
RT heterodimer = target: T3, RT heterodimer (Human immunodeficiency virus type 1 group M subtype B, UniProt P12497); settings: cited from earlier work
T3 construct: The enzyme is a heterodimer of p66 and p51 subunits

[3] = target: p66 and p51 subunits of the HIV-1 RT (Human immunodeficiency virus type 1 group M subtype B, UniProt P12497); test: Y2H RT heterodimerization assay measuring effect of NNRTIs on b-gal activity (wild-type lexA87-66 + Gal4AD-51); assay type: cell-based; settings: for enhancement of b-gal activity (relative potency): yeast expressing lexA87-66 and Gal4AD-51, drug added to culture medium
Method: as §1
Yeast and bacterial strains were as described previously (22). Transformation of yeast, the qualitative b-gal colony lift assay and the quantitative b-gal liquid assay were as previously described (22).
CTY10-5d transformed constructs expressing p66 bait and p51 prey fusions were grown overnight to stationary phase in synthetic complete medium without histidine and leucine and containing 2% glucose (SC-His-Leu). […] Yeast were grown with aeration at 30° C. to OD600=0.5. The equivalent of 1 OD600 unit was pelleted for each treatment and subjected to a quantitative b-gal liquid assay.
To test the effects of NNRTIs on the association of the RT polypeptides we used a yeast genetic assay that measures RT heterodimerization (22). […] To test for the effects of the NNRTIs on this interaction, 10 drugs representing 7 different NNRTI classes were added to the culture medium during growth of the yeast and b-gal levels were determined.

[4] = target: T4, lexA87-66L234A and Gal4AD-HA-51L234A (Human immunodeficiency virus type 1 group M subtype B, UniProt P04585, L821A); assay type: cell-based, HIV-1; settings: yeast grown in efavirenz (1.6 μM) or UC781 (16 μM), compared to no drug
T4 construct: Yeast expressing p66 bait and p51 prey fusions containing the L234A mutation; expressed in transfected cells; host or cells: Saccharomyces cerevisiae CTY10-5d
Excerpt: Samples were resolved by SDS-PAGE. The leXA87-66 fusion protein was probed using monoclonal antibodies 7E5 which specifically detects p66 (31).
Hemagglutinin (HA) antibodies were used to immunoprecipitate the p51 prey and the presence of any bound p66 bait was then detected using anti-p66 specific antibodies. For coimmunoprecipitation of the p66 bait fusions, samples were divided into two with one part processed without added NNRTI while the other was maintained in drug at the same concentration used during growth of yeast.

HIV-1 RT = HIV-1 RT (Human immunodeficiency virus type 1 group M subtype B, UniProt P12497); test: Exogenous RT assay (RT inhibitory activity); assay type: biochemical; settings: results not shown

Compound: O=C1Nc2ccc(Cl)cc2[C@@](C#CC2CC2)(C(F)(F)F)O1 [efavirenz]
- b-gal activity with empty vectors (lexA87 and Gal4AD): no increase in b-gal activity

Compound: 2′, 5′-bis-O-(tert-butylidimethylsilyl)-3′-spiro-5″-4″-amino-1′, 2″-oxothiole-2″,2″-dioxide)]-b-D-pentofuranosyl [TSAO]
- destabilization of the p66/p51 heterodimer (p66/p51 heterodimer [1]): destabilize the p66/p51 heterodimer
- effect on heterodimerization in in vitro binding assays (p66-His and GST-p51; preliminary tests, data not shown): reduce heterodimerization
- effect on β-gal activity in the Y2H system (p66/p51 heterodimer [2]): no inhibition of β-gal activity

Compound: CC(C)=CCOc1cc(NC(=S)c2ccoc2C)ccc1Cl [UC781]
- inhibition of HIV-1 replication in vitro (HIV-1): extremely potent inhibitors of HIV-1 replication in vitro
- enhancement of dimerization of GST-p51 and p66-His in vitro (p66-His and GST-p51): poor dimerization inducers
- binding to the RT heterodimer (RT heterodimer): bind very tightly
- dissociation rates (koff) (RT heterodimer): very slow dissociation rates
- enhancement of b-gal activity (relative potency) [3]: second most potent
- amount of p66 bait coimmunoprecipitated with p51 prey (heterodimer formation), L234A [4]: not for the L234A mutant

Compound: Cc1occc1C(=S)Nc1ccc(Cl)c(/C=N/OC(C)(C)C)c1 [UC10]
- enhancement of dimerization of GST-p51 and p66-His in vitro (p66-His and GST-p51): poor dimerization inducers

Compound: COc1ccc2c(c1)N(C(=O)OC(C)C)[C@@H](CSC)C(=S)N2 [HBY 097]
- inhibition of HIV-1 replication in vitro (HIV-1): extremely potent inhibitors of HIV-1 replication in vitro
- enhancement of b-gal activity (relative potency) [3]: most potent

Compound: CCn1c(=O)c(C)cn([C@@H]2O[C@H](CO[Si](C)(C)C(C)(C)C)C3(OS(=O)(=O)C=C3N)[C@H]2O[Si](C)(C)C(C)(C)C)c1=O (stereo partly drawn) [TSAOe^3T]
- destabilization of the p66/p51 heterodimer (p66/p51 heterodimer [1]): more modest destabilization only detectable in the presence of denaturants

Compound: CC(C)OC(=O)c1cc(NC(=S)OC(C)C)ccc1Cl [UC38]
- RT inhibitory activity (50% inhibitory concentration), rank (HIV-1 RT): least active
- concentration of drug that mediates a 5-fold increase in b-gal activity (rank) ([3]; results not shown): least active

Compound: CC(C)Nc1cccnc1N1CCN(C(=O)c2cc3cc(NS(C)(=O)=O)ccc3[nH]2)CC1 [delavirdine]
- enhancement of dimerization of GST-p51 and p66-His in vitro (p66-His and GST-p51): inactive in vitro
- enhancement of b-gal activity (relative potency) [3]: devoid of b-gal enhancing activity
